Values of other authors, collected in patent US20220387435A1, “USE OF MULTI-TARGET PROTEIN KINASE INHIBITOR” (CSPC Zhongqi Pharmaceutical Technology (Shijiazhuang) Co., …, priority 2019, published 2022).
“Also recorded” adds a separate entry of the source.

Experiments:
[1] = test system: AML patients; details: cited from earlier work; for Main toxicity: similar products, prior art
[2] = test system: FLT3-TKD mutation; details: similar products, prior art; cited from earlier work
[3] = test system: AML patients; details: cited from earlier work; for CR rates in monotherapy for R/R AML: Sorafenib 400 mg BID, Midostaurin 50 mg BID, Quizartinib 30-60 mg QD, Gilteritinib 120 mg QD
[4] = phase 3 clinical trial of Quizatinib
[5] = phase II trial of oral Quizartinib, relapsed/refractory AML
[6] = phase II trial of oral Quizartinib
[7] = 120 mg daily, N = 246, ADMIRAL trial
[8] = phase 3 clinical trial of Gilteritinib

CNC(=O)c1cc(Oc2ccc(NC(=O)Nc3ccc(Cl)c(C(F)(F)F)c3)cc2)ccn1 [Sorafenib]
Main toxicity [1]: Rash, bleeding,; also recorded: myelosuppression | FLT3-TKD mutation activity [2]: No | CR rates in monotherapy for R/R AML [3]: <10%

CC(C)(C)c1cc(NC(=O)Nc2ccc(-c3cn4c(n3)sc3cc(OCCN5CCOCC5)ccc34)cc2)no1 [Quizartinib]
serious hematological adverse reaction: anemia [1, 4]: 25.9% | serious hematological adverse reaction: cytopenia [1, 4]: 2.5% | serious hematological adverse reaction: febrile neutropenia [1, 4]: 15.8% | serious hematological adverse reaction: leukopenia [1, 4]: 18.0% | serious hematological adverse reaction: lymphopenia [1, 4]: 4.0% | serious hematological adverse reaction: neutropenia [1, 4]: 25.9% | serious hematological adverse reaction: thrombocytopenia [1, 4]: 34.2% | adverse reaction: anemia [1, 5]: 29% | adverse reaction: diarrhea [1, 5]: 20% | adverse reaction: fatigue [1, 5]: 20% | adverse reaction: febrile neutropenia [1, 5]: 25% | adverse reaction: nausea [1, 5]: 38% | adverse reaction: vomiting [1, 5]: 26% | dose-limiting toxicity response [1, 6]: QT prolongation of Grade 3 | patients discontinuing the treatment due to adverse events [1, 6]: 10% | Main toxicity [1]: QTinterval; also recorded: myelosuppression | CR ([3]; Quizatinib Japan phase 2 53 mg 26 cases, prior lines not limited): 0 cases | CR rates in monotherapy for R/R AML [3]: 24-47%

CO[C@@H]1[C@H](N(C)C(=O)c2ccccc2)C[C@H]2O[C@]1(C)n1c3ccccc3c3c4c(c5c6ccccc6n2c5c31)C(=O)NC4 [Midostaurin]
Main toxicity [1]: Gastrointestinal; also recorded: myelosuppression

CCc1nc(C(N)=O)c(Nc2ccc(N3CCC(N4CCN(C)CC4)CC3)c(OC)c2)nc1NC1CCOCC1 [Gilteritinib]
Most common ADRs of grade ≥ 3: Anemia [1, 7]: 100 (40.7%) | Most common ADRs of grade ≥ 3: Febrile neutropenia [1, 7]: 113 (45.9%) | Most common ADRs of grade ≥ 3: Thrombocytopenia [1, 7]: 56 (22.8%) | Cardiotoxicity ADR: Cardiac failure ([1]; 120 mg daily, N = 292): 4% | Cardiotoxicity ADR: Pericardial effusion ([1]; 120 mg daily, N = 292): 3% | Cardiotoxicity ADR: Pericarditis ([1]; 120 mg daily, N = 292): 2% | Cardiotoxicity ADR: QT interval prolongation ([1]; 120 mg daily, N = 292): 8.4% | incidence of ALT elevation of all grades [1, 8]: 26.3% | incidence of ALT elevation of grade ≥3 [1, 8]: 12.9% | incidence of AST elevation of all grades [1, 8]: 80.6% | incidence of QT interval prolongation of all grades [1, 8]: 8.8% | incidence of QT interval prolongation of grade ≥3 [1, 8]: 2.5% | Main toxicity [1]: Transaminase; also recorded: diarrhea
